Assay results from patent US20240124432A1, “HERBICIDAL COMPOUNDS” (SYNGENTA CROP PROTECTION AG, priority 2020, published 2024).

What was measured:
Type in all cases: in vivo
SETFA [1] = test: Pre-emergence biological efficacy; conditions: Setaria faberi, 312 h, evaluated after 13 days, read-out: damage to plant (100=total damage to plant; 0=no damage to plant)
Description: (§1) Seeds of weeds and/or crops were sown in standard soil in pots. After cultivation for one day under controlled conditions in a glasshouse (at 24/19° C., day/night; 16 hours light), the plants were sprayed with an aqueous spray solution derived from the formulation of the technical active ingredient in a small amount of acetone and a special solvent and emulsifier mixture referred to as IF50 (11.12% Emulsogen EL360 TM+44.44% N-methylpyrrolidone+44.44% Dowanol DPM glycol ether), to create a 50g/l solution which was then diluted using 0.2% Genapol XO80 as diluent to give the desired final dose of test compound.
(§2) The test plants were then grown under controlled conditions in the glasshouse (at 24/18° C., day/night; 15 hours light; 50% humidity) and watered twice daily. After 13 days the test was evaluated (100=total damage to plant; 0=no damage to plant).

LOLPE [2] = test: Pre-emergence biological efficacy; conditions: Lolium perenne, 312 h, evaluated after 13 days, read-out: damage to plant (100=total damage to plant; 0=no damage to plant)
Description: as §1, §2

EPHHL [3] = test: Pre-emergence biological efficacy; conditions: Euphorbia heterophylla, 312 h, evaluated after 13 days, read-out: damage to plant (100=total damage to plant; 0=no damage to plant)
Description: as §1, §2

IPOHE [4] = test: Pre-emergence biological efficacy; conditions: Ipomoea hederacea, 312 h, evaluated after 13 days, read-out: damage to plant (100=total damage to plant; 0=no damage to plant)
Description: as §1, §2

AMAPA [5] = test: Pre-emergence biological efficacy; conditions: Amaranthus palmeri, 312 h, evaluated after 13 days, read-out: damage to plant (100=total damage to plant; 0=no damage to plant)
Description: as §1, §2

ECHCG [6] = test: Pre-emergence biological efficacy; conditions: Echinochloa crus-galli, 312 h, evaluated after 13 days, read-out: damage to plant (100=total damage to plant; 0=no damage to plant)
Description: as §1, §2

SETFA [7] = test: Post-emergence biological efficacy; conditions: Setaria faberi, 312 h, evaluated after 13 days, read-out: damage to plant (100=total damage to plant; 0=no damage to plant)
Description: as §1, with “14 days” for “one day”
(§3) The test plants were then grown under controlled conditions in the glasshouse (at 24/18° C., day/night; 15 hours light; 50% humidity)and watered twice daily. After 13 days the test was evaluated (100=total damage to plant; 0=no damage to plant).

DIGSA = test: Post-emergence biological efficacy; conditions: Digitaria sanguinalis, 312 h, evaluated after 13 days, read-out: damage to plant (100=total damage to plant; 0=no damage to plant)
Description: as §1, with “14 days” for “one day”
as §3

LOLPE [8] = test: Post-emergence biological efficacy; conditions: Lolium perenne, 312 h, evaluated after 13 days, read-out: damage to plant (100=total damage to plant; 0=no damage to plant)
Description: as §1, with “14 days” for “one day”
as §3

EPHHL [9] = test: Post-emergence biological efficacy; conditions: Euphorbia heterophylla, 312 h, evaluated after 13 days, read-out: damage to plant (100=total damage to plant; 0=no damage to plant)
Description: as §1, with “14 days” for “one day”
as §3

ELEIN = test: Post-emergence biological efficacy; conditions: 312 h, evaluated after 13 days, read-out: damage to plant (100=total damage to plant; 0=no damage to plant)
Description: as §1, with “14 days” for “one day”
as §3

CHEAL = test: Post-emergence biological efficacy; conditions: Chenopodium album, 312 h, evaluated after 13 days, read-out: damage to plant (100=total damage to plant; 0=no damage to plant)
Description: as §1, with “14 days” for “one day”
as §3

IPOHE [10] = test: Post-emergence biological efficacy; conditions: Ipomoea hederacea, 312 h, evaluated after 13 days, read-out: damage to plant (100=total damage to plant; 0=no damage to plant)
Description: as §1, with “14 days” for “one day”
as §3

AMAPA [11] = test: Post-emergence biological efficacy; conditions: Amaranthus palmeri, 312 h, evaluated after 13 days, read-out: damage to plant (100=total damage to plant; 0=no damage to plant)
Description: as §1, with “14 days” for “one day”
as §3

ECHCG [12] = test: Post-emergence biological efficacy; conditions: Echinochloa crus-galli, 312 h, evaluated after 13 days, read-out: damage to plant (100=total damage to plant; 0=no damage to plant)
Description: as §1, with “14 days” for “one day”
as §3

Compound `CCOC(=O)C1(C)CC(c2cc(-c3cccnc3)c(F)cc2Cl)=NO1` (stereo not drawn) [Compound 1-247, Ethyl 3-[2-chloro-4-fluoro-5-(3-pyridyl)phenyl]-5-methyl-4H-isoxazole-5-carboxylate] has a pest or weed control at 250 g/ha (SETFA [1]) of 0%, a pest or weed control at 250 g/ha (LOLPE [2]) of 0% and a pest or weed control at 250 g/ha (EPHHL [3]) of 0%. For the same compound, the pest or weed control at 250 g/ha (IPOHE [4]) was 0%, the pest or weed control at 250 g/ha (AMAPA [5]) was 60% and the pest or weed control at 250 g/ha (ECHCG [6]) was 0%. The pest or weed control at 250 g/ha (SETFA [7]) was 0%, the pest or weed control at 250 g/ha (DIGSA) was 0% and the pest or weed control at 250 g/ha (LOLPE [8]) was 0%. The pest or weed control at 250 g/ha (EPHHL [9]) was 10%, the pest or weed control at 250 g/ha (ELEIN) was 10% and the pest or weed control at 250 g/ha (CHEAL) was 0%. It also gave a pest or weed control at 250 g/ha (IPOHE [10]) of 0%, a pest or weed control at 250 g/ha (AMAPA [11]) of 0% and a pest or weed control at 250 g/ha (ECHCG [12]) of 0%.

For `CCOC(=O)C1(C)CC(c2cc(-c3cnccc3OC)c(F)cc2Cl)=NO1` (stereo not drawn) [Compound 1-259, Ethyl 3-[2-chloro-4-fluoro-5-(4-methoxy-3-pyridyl)phenyl]-5-methyl-4H-isoxazole-5-carboxylate], the pest or weed control at 250 g/ha (SETFA [1]) was 0%, the pest or weed control at 250 g/ha (LOLPE [2]) was 0% and the pest or weed control at 250 g/ha (EPHHL [3]) was 0%. It also gave a pest or weed control at 250 g/ha (IPOHE [4]) of 0%, a pest or weed control at 250 g/ha (AMAPA [5]) of 0% and a pest or weed control at 250 g/ha (ECHCG [6]) of 0%. The pest or weed control at 250 g/ha (SETFA [7]) was 30%, the pest or weed control at 250 g/ha (DIGSA) was 40% and the pest or weed control at 250 g/ha (LOLPE [8]) was 0%. The pest or weed control at 250 g/ha (EPHHL [9]) was 20%, the pest or weed control at 250 g/ha (ELEIN) was 20% and the pest or weed control at 250 g/ha (CHEAL) was 80%. The pest or weed control at 250 g/ha (IPOHE [10]) was 30%, the pest or weed control at 250 g/ha (AMAPA [11]) was 60% and the pest or weed control at 250 g/ha (ECHCG [12]) was 20%.

`CCOC(=O)C1(C)CC(c2cc(-c3cncc(Cl)c3)c(F)cc2Cl)=NO1` (stereo not drawn) [Compound 1-271, Ethyl 3-[2-chloro-5-(5-chloro-3-pyridyl)-4-fluoro-phenyl]-5-methyl-4H-isoxazole-5-carboxylate] was tested, and the pest or weed control at 250 g/ha (SETFA [1]) was 0%, the pest or weed control at 250 g/ha (LOLPE [2]) was 0% and the pest or weed control at 250 g/ha (EPHHL [3]) was 0%. The pest or weed control at 250 g/ha (IPOHE [4]) was 0%, the pest or weed control at 250 g/ha (AMAPA [5]) was 0% and the pest or weed control at 250 g/ha (ECHCG [6]) was 0%. It also gave a pest or weed control at 250 g/ha (SETFA [7]) of 50%, a pest or weed control at 250 g/ha (DIGSA) of 20% and a pest or weed control at 250 g/ha (LOLPE [8]) of 0%. It also gave a pest or weed control at 250 g/ha (EPHHL [9]) of 40%, a pest or weed control at 250 g/ha (ELEIN) of 20% and a pest or weed control at 250 g/ha (CHEAL) of 70%. The pest or weed control at 250 g/ha (IPOHE [10]) was 100%, the pest or weed control at 250 g/ha (AMAPA [11]) was 90% and the pest or weed control at 250 g/ha (ECHCG [12]) was 20%.

In the case of `CCOC(=O)C1(C)CC(c2cc(-c3ccc(C)nc3)c(F)cc2Cl)=NO1` (stereo not drawn) [Compound 1-283, Ethyl 3-[2-chloro-4-fluoro-5-(6-methyl-3-pyridyl)phenyl]-5-methyl-4H-isoxazole-5-carboxylate], the pest or weed control at 250 g/ha (SETFA [1]) is reported as 0%, the pest or weed control at 250 g/ha (LOLPE [2]) is reported as 0% and the pest or weed control at 250 g/ha (EPHHL [3]) is reported as 20%. For the same compound, the pest or weed control at 250 g/ha (IPOHE [4]) was 0%, the pest or weed control at 250 g/ha (AMAPA [5]) was 0% and the pest or weed control at 250 g/ha (ECHCG [6]) was 0%. The pest or weed control at 250 g/ha (SETFA [7]) was 20%, the pest or weed control at 250 g/ha (DIGSA) was 20% and the pest or weed control at 250 g/ha (LOLPE [8]) was 0%. The pest or weed control at 250 g/ha (EPHHL [9]) was 60%, the pest or weed control at 250 g/ha (ELEIN) was 0% and the pest or weed control at 250 g/ha (CHEAL) was 30%. For the same compound, the pest or weed control at 250 g/ha (IPOHE [10]) was 40%, the pest or weed control at 250 g/ha (AMAPA [11]) was 70% and the pest or weed control at 250 g/ha (ECHCG [12]) was 10%.

In the case of `CCOC(=O)C1(C)CC(c2cc(-c3ccnc(F)c3)c(F)cc2Cl)=NO1` (stereo not drawn) [Compound 1-295, Ethyl 3-[2-chloro-4-fluoro-5-(2-fluoro-4-pyridyl)phenyl]-5-methyl-4H-isoxazole-5-carboxylate], the pest or weed control at 250 g/ha (SETFA [1]) is reported as 0%, the pest or weed control at 250 g/ha (LOLPE [2]) is reported as 0% and the pest or weed control at 250 g/ha (EPHHL [3]) is reported as 0%. The pest or weed control at 250 g/ha (IPOHE [4]) was 0%, the pest or weed control at 250 g/ha (AMAPA [5]) was 0% and the pest or weed control at 250 g/ha (ECHCG [6]) was 0%. The pest or weed control at 250 g/ha (SETFA [7]) was 10%, the pest or weed control at 250 g/ha (DIGSA) was 10% and the pest or weed control at 250 g/ha (LOLPE [8]) was 0%. The pest or weed control at 250 g/ha (EPHHL [9]) was 50%, the pest or weed control at 250 g/ha (ELEIN) was 10% and the pest or weed control at 250 g/ha (CHEAL) was 70%. The pest or weed control at 250 g/ha (IPOHE [10]) was 50%, the pest or weed control at 250 g/ha (AMAPA [11]) was 90% and the pest or weed control at 250 g/ha (ECHCG [12]) was 10%.
